Source: ChEMBL document CHEMBL1201862, “PubChem BioAssay data set” (2004)
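96-well plates; 48 h exposure; 5 concentrations. Endpoints by linear interpolation between flanking doses. Not reached: highest tested concentration assigned. Here, GI50 denotes the concentration required for 50% inhibition of growth.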 The source made the active and inactive calls. Cut-off read from the data, not from the text of the source: active = GI50 up to about 1.1 µM and inactive = higher.

Columns and labels:
Assay in all cases: growth of human tumour cells (NCI), 48 h
ACHN = tested on: ACHN
CAKI-1 = tested on: CAKI-1
COLO 205 = tested on: COLO 205
HL-60 = tested on: HL-60
HOP-62 = tested on: HOP-62
KM12 = tested on: KM12
NCI-H226 = tested on: NCI-H226
NCI-H460 = tested on: NCI-H460
NCI-H522 = tested on: NCI-H522
RPMI-8226 = tested on: RPMI-8226
RXF 393 = tested on: RXF 393
SF-539 = tested on: SF-539
SR = tested on: SR
SW-620 = tested on: SW-620
UACC-62 = tested on: UACC-62
LOX IMVI = tested on: LOX IMVI
CCRF-CEM = tested on: CCRF-CEM

Measured: GI50

O=c1ccn(C2(CO)C=C(CO)C(O)C2O)c(=O)[nH]1 (stereo not drawn)
inactive: ACHN > 25.7 µM | CAKI-1 > 25.7 µM | COLO 205 > 25.7 µM | HL-60 > 25.7 µM | HOP-62 > 25.7 µM | KM12 > 25.7 µM | NCI-H226 > 25.7 µM | NCI-H460 > 25.7 µM | NCI-H522 > 25.7 µM | RPMI-8226 > 25.7 µM | RXF 393 > 25.7 µM | SF-539 > 25.7 µM | SR > 25.7 µM | SW-620 > 25.7 µM | UACC-62 > 25.7 µM

CCOC(=O)C1=C(C)N(NC(=O)c2ccccc2)C2(O)CCCC12C(=O)OCC (stereo not drawn)
inactive: ACHN > 100 µM | CAKI-1 > 100 µM | HL-60 > 100 µM | HOP-62 > 100 µM | KM12 > 100 µM | LOX IMVI > 100 µM | NCI-H226 > 100 µM | NCI-H460 > 100 µM | NCI-H522 > 100 µM | RPMI-8226 > 100 µM | RXF 393 > 100 µM | SF-539 > 100 µM | SR 73.3 µM | SW-620 > 100 µM | UACC-62 > 100 µM

N#Cc1cccc(/C=N/C23CC4CC(CC(C4)C2)C3)c1
inactive: ACHN > 100 µM | CAKI-1 > 100 µM | CCRF-CEM 62.5 µM | COLO 205 > 100 µM | HL-60 21.3 µM | HOP-62 > 100 µM | KM12 > 100 µM | LOX IMVI > 100 µM | NCI-H226 > 100 µM | NCI-H460 > 100 µM | NCI-H522 > 100 µM | RPMI-8226 52.2 µM | RXF 393 > 100 µM | SF-539 > 100 µM | SR 76.2 µM | SW-620 > 100 µM | UACC-62 > 100 µM

NC(=O)N/N=C(\C(=O)C(=O)Nc1ccc(Cl)c(C(F)(F)F)c1)c1nc2ccc(C(=O)c3ccccc3)cc2nc1O
inactive: ACHN 82.4 µM | CAKI-1 27.5 µM | CCRF-CEM 55.8 µM | COLO 205 > 100 µM | KM12 77.6 µM | NCI-H226 47.3 µM | NCI-H460 > 100 µM | NCI-H522 46.6 µM | RPMI-8226 > 100 µM | RXF 393 66.4 µM | SF-539 > 100 µM | SR 45.7 µM | SW-620 > 100 µM | UACC-62 59 µM

CC1=NN(C(=O)Cc2ccccc2)C(=O)/C1=C\C=C\c1ccccc1
inactive: ACHN > 100 µM | CAKI-1 > 100 µM | CCRF-CEM > 100 µM | COLO 205 > 100 µM | HL-60 > 100 µM | HOP-62 > 100 µM | KM12 > 100 µM | LOX IMVI > 100 µM | NCI-H226 > 100 µM | NCI-H522 > 100 µM | RPMI-8226 > 100 µM | SF-539 > 100 µM | SR > 100 µM | SW-620 > 100 µM

COC1=CC23C=CC1[C@@H](c1ccccc1)C2=C(C)C(=O)N3C(=O)NC1CCCCC1 (stereo partly drawn)
inactive: ACHN 30.9 µM | CAKI-1 16.9 µM | CCRF-CEM 25.7 µM | HL-60 21 µM | HOP-62 21.5 µM | KM12 31.3 µM | LOX IMVI 17 µM | NCI-H226 20.4 µM | NCI-H460 20.1 µM | NCI-H522 18.9 µM | RXF 393 3.45 µM | SF-539 19.4 µM | SR 20.2 µM | SW-620 19.5 µM | UACC-62 26.5 µM

O=C1C=C(Nc2ccccc2C(=O)CC(=O)C(=O)Nc2ccc(Cl)c(Cl)c2)c2ccccc2C1=O
inactive: ACHN 73.5 µM | CAKI-1 87.3 µM | CCRF-CEM 4.76 µM | COLO 205 > 100 µM | HOP-62 > 100 µM | KM12 59.6 µM | NCI-H226 55.5 µM | NCI-H460 36.2 µM | NCI-H522 18.6 µM | RPMI-8226 35.6 µM | RXF 393 71.3 µM | SF-539 51.2 µM | SR 5 µM | UACC-62 23.6 µM

CCOC(=O)C(NC(=O)c1nc[nH]c1/N=N/N(C)C)C(C)C (stereo not drawn)
inactive: ACHN > 100 µM | CAKI-1 > 100 µM | CCRF-CEM > 100 µM | COLO 205 > 100 µM | HL-60 > 100 µM | HOP-62 > 100 µM | KM12 > 100 µM | LOX IMVI > 100 µM | NCI-H226 > 100 µM | NCI-H460 > 100 µM | NCI-H522 > 100 µM | RPMI-8226 > 100 µM | SF-539 > 100 µM | SR > 100 µM | SW-620 > 100 µM | UACC-62 > 100 µM

CC1(C)CCc2cc3c(cc2O1)OC(C)(C)C1c2c(ccc4c2CCC(C)(C)O4)OC31 (stereo not drawn)
inactive: ACHN > 100 µM | CAKI-1 99.8 µM | CCRF-CEM > 100 µM | COLO 205 > 100 µM | HL-60 51.1 µM | HOP-62 > 100 µM | KM12 > 100 µM | LOX IMVI > 100 µM | NCI-H226 > 100 µM | NCI-H460 > 100 µM | NCI-H522 > 100 µM | RPMI-8226 > 100 µM | SF-539 > 100 µM | SR > 100 µM | SW-620 > 100 µM | UACC-62 > 100 µM

CCCCCCCCCCCC(=O)OCC1OC(n2cc(F)c(=O)[nH]c2=O)C(N)C(O)C1O (stereo not drawn)
inactive: ACHN > 100 µM | CAKI-1 49 µM | CCRF-CEM 31.2 µM | COLO 205 60.3 µM | HL-60 38.9 µM | HOP-62 > 100 µM | KM12 77.4 µM | NCI-H226 > 100 µM | NCI-H460 78.9 µM | NCI-H522 75.3 µM | RPMI-8226 > 100 µM | RXF 393 > 100 µM | SF-539 > 100 µM | SR 81.7 µM | SW-620 > 100 µM | UACC-62 42 µM

CCOC(=O)c1cnc2oc(-c3ccc(OC)cc3)nn2c1=O
inactive: COLO 205 > 100 µM | KM12 > 100 µM | NCI-H226 > 100 µM | NCI-H522 79.1 µM | RPMI-8226 > 100 µM | RXF 393 93.1 µM | SF-539 > 100 µM | SR > 10 µM | SW-620 > 100 µM | UACC-62 71.1 µM

c1cc2c(cnc3cscc32)s1
inactive: ACHN > 100 µM | CAKI-1 95.5 µM | CCRF-CEM > 100 µM | HL-60 > 100 µM | HOP-62 > 100 µM | KM12 > 100 µM | LOX IMVI > 100 µM | NCI-H226 > 100 µM | NCI-H460 > 100 µM | NCI-H522 > 100 µM | RPMI-8226 > 100 µM | RXF 393 > 100 µM | SF-539 > 100 µM | SR > 100 µM | SW-620 > 100 µM

O=C(O)CP(=S)(S)c1ccccc1 (stereo not drawn)
inactive: ACHN > 100 µM | CAKI-1 > 100 µM | CCRF-CEM > 100 µM | COLO 205 > 100 µM | HL-60 > 100 µM | HOP-62 > 100 µM | KM12 > 100 µM | LOX IMVI > 100 µM | NCI-H226 > 100 µM | NCI-H460 > 100 µM | NCI-H522 > 100 µM | RXF 393 > 100 µM | SF-539 > 100 µM | SR > 100 µM | SW-620 > 100 µM | UACC-62 > 100 µM
